In one assay the target is EthR2 (Rv0078) (Mycobacterium tuberculosis, UniProt O53623). The experiment in a line: biochemical. Type of assay: binding.
Assay [1] addresses T1, BCG_0174 (SnoaL-like domain-containing, ortholog to Rv0138) (Mycobacterium tuberculosis, UniProt A0A679LAM0).
T1 construct: gene BQ2027_MB0143
The assay is described as follows: chemoproteomic competition with immobilised GSK569A/GSK574A beads, TMT LC-MS/MS; IC50 […]. The class given is biochemical.

A further assay addresses T2, BCG_0109 (EthR2) (Mycobacterium tuberculosis, UniProt O53623).
T2 construct: gene Rv0078
The description is as above. The class given is biochemical.

What is called Kd is the constant that tells how readily two partners part at equilibrium. The low end stands for higher affinity, the high end for lower affinity.

T1 sequence (A0A679LAM0 entry or part of it): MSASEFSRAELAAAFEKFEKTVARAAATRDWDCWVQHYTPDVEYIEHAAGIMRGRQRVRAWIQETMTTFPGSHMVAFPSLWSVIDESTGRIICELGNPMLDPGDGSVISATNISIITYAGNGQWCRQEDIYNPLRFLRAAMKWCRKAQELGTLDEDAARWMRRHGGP
Sequence of EthR2 (Rv0078) (O53623 entry or part of it): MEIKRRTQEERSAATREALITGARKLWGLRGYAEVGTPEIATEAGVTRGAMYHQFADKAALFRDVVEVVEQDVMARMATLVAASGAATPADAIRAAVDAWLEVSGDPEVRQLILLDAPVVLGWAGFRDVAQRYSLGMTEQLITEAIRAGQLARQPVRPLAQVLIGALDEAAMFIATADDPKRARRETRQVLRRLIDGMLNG
T2 sequence (O53623 entry or part of it): as above

The compound `Cc1c(CN2CCN(C)CC2)cc(-c2ccc(Cl)cc2)n1-c1ccc(Cl)cc1` [BM212, 1-((1,5-bis(4-chlorophenyl)-2-methyl-1H-pyrrol-3-yl)methyl)-4-methylpiperazine] showed a Kd on EthR2 (Rv0078) of 660 nM. That is a sub-micromolar value.

`Cc1c(CN2CCN(C)CC2)cc(-c2ccc(C(C)C)cc2)n1-c1ccc(F)cc1` [GSK074A, 1-((1-(4-Fluorophenyl)-5-(4-isopropylphenyl)-2-methyl-1H-pyrrol-3-yl)methyl)-4-methylpiperazine]: the dissociation constant (Kd) is 7300 nM in assay [1] and 2900 nM on BCG_0109 (EthR2).

Source of the values: article PMC8634040, “The multi-target aspect of an MmpL3 inhibitor: The BM212 series of compounds bind EthR2, a transcriptional regulator of ethionamide activation” (The Cell Surface, 2021).
